Patent US20260285850A1, “SUBSTITUTED OXAZOLIDINONES AND IMIDAZOLINONES AS HERBICIDES” (FMC CORPORATION, priority 2023, published 2026)

Columns and labels:
Format in all cases: in vivo
rice (Oryza sativa) = assay: Test B flooded paddy test, visual plant response rating 0-100; details: 250 g ai/ha, Flood, applied to paddy water, evaluated after 13 days
In short: (§1)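 Treatment occurs at the 2-leaf stage by adding compound to floodwater standing 3 cm above the soil, a level kept for the whole test. Plants stay in the greenhouse 13 days before visual comparison with controls.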

[1] = test system: barnyardgrass (Echinochloa crusgalli); assay: as above; details: 250 g ai/ha, Flood, applied to paddy water, evaluated after 13 days
In short: as §1

[2] = test system: ducksalad (Heteranthera limosa); assay: as above; details: 250 g ai/ha, Flood, applied to paddy water, evaluated after 13 days
In short: as §1

[3] = test system: sedge, umbrella (small-flower umbrella sedge, Cyperus difformis); assay: as above; details: 250 g ai/ha, Flood, applied to paddy water, evaluated after 13 days
In short: as §1

[4] = test system: palmer (palmer amaranth, palmer pigweed, Amaranthus palmeri); assay: Test A postemergence application, visual injury rating 0-100
In short: (§2)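 Plants were grown in a loam soil-sand blend and treated with test chemical in a non-phytotoxic solvent mixture containing surfactant, either sprayed on soil preemergence or applied postemergence to 2-10 cm plants. After 10 days in a greenhouse, injury was scored visually against untreated controls, 0 meaning no effect and 100 complete control.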

[5] = test system: ragweed (common ragweed, Ambrosia artemisiifolia); assay: as above
In short: as §2

[6] = test system: horseweed (Erigeron canadensis); assay: as above; details: Postemergence, 16 g ai/ha, greenhouse 10 days; 0 no effect, 100 complete control
In short: as §2

[7] = test system: blackgrass (Alopecurus myosuroides); assay: as above
In short: as §2

kochia (Bassia scoparia) [8] = assay: as above
In short: as §2

[9] = test system: wheat (Triticum aestivum); assay: as above
In short: as §2

corn (Zea mays) [10] = assay: as above
In short: as §2

[11] = test system: ryegrass, Italian (italian ryegrass, Lolium multiflorum); assay: as above
In short: as §2

[12] = test system: oat, wild (wild oat, Avena fatua); assay: as above
In short: as §2

[13] = test system: green foxtail (Setaria viridis); assay: as above
In short: as §2

[14] = test system: barnyardgrass (Echinochloa crus-galli); assay: as above
In short: as §2

soybean (Glycine max) [15] = assay: as above
In short: as §2

[16] = test system: palmer (palmer amaranth, palmer pigweed, Amaranthus palmeri); assay: Test A preemergence soil spray, visual injury rating 0-100; details: 10 days
In short: as §2

[17] = test system: ragweed (common ragweed, Ambrosia artemisiifolia); assay: as above; details: 10 days
In short: as §2

[18] = test system: blackgrass (Alopecurus myosuroides); assay: as above; details: 10 days
In short: as §2

kochia (Bassia scoparia) [19] = assay: as above; details: 10 days
In short: as §2

[20] = test system: wheat (Triticum aestivum); assay: as above; details: 10 days
In short: as §2

corn (Zea mays) [21] = assay: as above; details: 10 days
In short: as §2

[22] = test system: ryegrass, Italian (italian ryegrass, Lolium multiflorum); assay: as above; details: 10 days
In short: as §2

[23] = test system: oat, wild (wild oat, Avena fatua); assay: as above; details: 10 days
In short: as §2

[24] = test system: green foxtail (Setaria viridis); assay: as above; details: 10 days
In short: as §2

[25] = test system: barnyardgrass (Echinochloa crus-galli); assay: as above; details: 10 days
In short: as §2

soybean (Glycine max) [26] = assay: as above; details: 10 days
In short: as §2

[27] = 62 g ai/ha, postemergence, 10 days, 0 = no effect, 100 = complete control
[28] = Postemergence, 16 g ai/ha, greenhouse 10 days, 0 no effect, 100 complete control
[29] = 62 g ai/ha, 0 = no effect, 100 = complete control

Structure (SMILES): CCOC(=O)C1=CCC(NC(=O)C2(C)CN(c3cc(Cl)cc(Cl)c3)C(=O)O2)C1 (stereo not shown) [Compound 113]
- Plant response rating, Rice (0 to 100 scale, 0 is no effect and 100 is complete control) (rice (Oryza sativa)): 0
- Plant response rating, Barnyardgrass (0 to 100 scale, 0 is no effect and 100 is complete control) [1]: 0
- Plant response rating, Ducksalad (0 to 100 scale, 0 is no effect and 100 is complete control) [2]: 0
- Plant response rating, Sedge, Umbrella (0 to 100 scale, 0 is no effect and 100 is complete control) [3]: 0
- Pigweed, Palmer plant response rating (0-100) [4, 27]: 10
- Pigweed, Palmer plant response rating (0 to 100 scale) [4, 28]: 0
- Ragweed plant response rating (0-100) [5, 27]: 30
- Ragweed plant response rating (0 to 100 scale) [5, 28]: 0
- Horseweed plant response rating (0 to 100 scale) [6]: 0
- Blackgrass plant response rating (0-100) [7, 27]: 20
- Blackgrass plant response rating (0 to 100 scale) [7, 28]: 0
- Kochia plant response rating (0-100) (kochia (Bassia scoparia) [8]; [27]): 0
- Kochia plant response rating (0 to 100 scale) (kochia (Bassia scoparia) [8]; [28]): 0
- Wheat plant response rating (0-100) [9, 27]: 0
- Wheat plant response rating (0 to 100 scale) [9, 28]: 0
- Corn plant response rating (0-100) (corn (Zea mays) [10]; [27]): 20
- Corn plant response rating (0 to 100 scale) (corn (Zea mays) [10]; [28]): 0
- Ryegrass, Italian plant response rating (0-100) [11, 27]: 0
- Ryegrass, Italian plant response rating (0 to 100 scale) [11, 28]: 0
- Oat, Wild plant response rating (0-100) [12, 27]: 0
- Oat, Wild plant response rating (0 to 100 scale) [12, 28]: 0
- Foxtail, Green plant response rating (0-100) [13, 27]: 20
- Foxtail, Green plant response rating (0 to 100 scale) [13, 28]: 0
- Barnyardgrass plant response rating (0-100) [14, 27]: 10
- Barnyardgrass plant response rating (0 to 100 scale) [14, 28]: 0
- Soybean plant response rating (0-100) (soybean (Glycine max) [15]; [27]): 0
- Soybean plant response rating (0 to 100 scale) (soybean (Glycine max) [15]; [28]): 0
- Pigweed, Palmer plant response rating ([16]; 16 g ai/ha, 0 to 100 scale): 0
- Pigweed, Palmer plant response rating (0-100) [16, 29]: 20
- Ragweed plant response rating ([17]; 16 g ai/ha, 0 to 100 scale): 0
- Ragweed plant response rating (0-100) [17, 29]: 0
- Blackgrass plant response rating ([18]; 16 g ai/ha, 0 to 100 scale): 0
- Blackgrass plant response rating (0-100) [18, 29]: 0
- Kochia plant response rating (kochia (Bassia scoparia) [19]; 16 g ai/ha, 0 to 100 scale): 0
- Kochia plant response rating (0-100) (kochia (Bassia scoparia) [19]; [29]): 0
- Wheat plant response rating ([20]; 16 g ai/ha, 0 to 100 scale): 0
- Wheat plant response rating (0-100) [20, 29]: 0
- Corn plant response rating (corn (Zea mays) [21]; 16 g ai/ha, 0 to 100 scale): 0
- Corn plant response rating (0-100) (corn (Zea mays) [21]; [29]): 0
- Ryegrass, Italian plant response rating ([22]; 16 g ai/ha, 0 to 100 scale): 0
- Ryegrass, Italian plant response rating (0-100) [22, 29]: 0
- Oat, Wild plant response rating ([23]; 16 g ai/ha, 0 to 100 scale): 0
- Oat, Wild plant response rating (0-100) [23, 29]: 0
- Foxtail, Green plant response rating ([24]; 16 g ai/ha, 0 to 100 scale): 0
- Foxtail, Green plant response rating (0-100) [24, 29]: 0
- Barnyardgrass plant response rating ([25]; 16 g ai/ha, 0 to 100 scale): 0
- Barnyardgrass plant response rating (0-100) [25, 29]: 0
- Soybean plant response rating (soybean (Glycine max) [26]; 16 g ai/ha, 0 to 100 scale): 0
- Soybean plant response rating (0-100) (soybean (Glycine max) [26]; [29]): 0
